pIC50: −log10 of the molar value.
Experiments:
[1] = In vivo pharmacokinetics study after single administration in Beagle dogs
Protocol: Experimental Example 4: In Vivo Pharmacokinetics Study after Single Administration in Beagle Dogs
Male Beagle dogs were used as the test animals, and the plasma concentrations of the compounds were determined after a single administration and the pharmacokinetic behavior was evaluated.
Beagle (male, 6 to 12 kg, more than 6 months old, Beijing Mars Biotechnology Co., Ltd.)
The purpose of the experiment was to test the pharmacokinetic characteristics of the tested compounds in non-rodents after intravenous injection and oral administration, in the experiment, the tested compounds were prepared into a clear solution or a homogeneous suspension, and the beagle dogs were given a single intravenous injection or oral administration. In the intravenous injection group, the solvent was a certain proportion of HP-β-cyclodextrin solution of dimethyl sulfoxide or a certain proportion of ethanol, and a normal saline solution of polyethylene glycol 400, vortexed and ultrasonicated to prepare a […] clear solution and filtered by microporous membrane for later use; oral solvent was a certain proportion of HP-β cyclodextrin solution of dimethyl sulfoxide or a certain proportion of sodium carboxymethyl cellulose solution, after the compound to be tested was mixed with the solvent, the solvent was vortexed and ultrasonicated to prepare a 3 mg/mL uniform suspension for later use.
(§1) C0 is the initial concentration, T1/2 is the elimination half-life, Vdss is the steady-state apparent volume of distribution, Cl is the total clearance, and AUC0-inf is area under the plasma drug concentration-time curve from 0 time to extrapolation to infinity area, Cmax is the peak concentration, and Tmax is the peak time.

TrkA = TrkA (Homo sapiens (Human), UniProt P04629); experiment: TrkA enzyme activity test; assay type: biochemical
Chain of TrkA (P04629 440-796): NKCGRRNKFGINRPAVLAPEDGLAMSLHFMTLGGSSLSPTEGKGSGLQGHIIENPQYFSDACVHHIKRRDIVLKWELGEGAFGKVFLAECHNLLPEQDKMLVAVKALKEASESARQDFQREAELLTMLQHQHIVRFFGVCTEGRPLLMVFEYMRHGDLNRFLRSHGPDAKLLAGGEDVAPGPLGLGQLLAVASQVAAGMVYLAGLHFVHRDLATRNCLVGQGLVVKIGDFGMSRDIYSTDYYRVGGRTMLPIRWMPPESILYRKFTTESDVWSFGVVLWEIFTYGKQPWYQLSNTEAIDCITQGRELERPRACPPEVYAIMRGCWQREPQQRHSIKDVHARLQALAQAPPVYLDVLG
Protocol: Experimental Example 1: TrkA Enzyme Activity Test
TK detection kit Cisbio-62TK0PEJ
Detection plate PerkinElmer-6007299
Envision PerkinElmer-2104
20 mM Hepes (pH 7.5), 10 mM MgCl2 (magnesium chloride), 1 mM EGTA, 0.01% Brij35, 0.1 mM Orthovanadate (sodium vanadate), 0.02 g/mL BSA (bovine serum protein), 2 mM DTT (dithiothreitol), 1% DMSO
This experiment was performed using Cisbio's homogeneous time-resolved fluorescence conjugate energy transfer (HTRF® method) for activity detection. In the detection plate, enzyme, biotin-labeled peptide substrate, ATP and detection compound were mixed and incubated for reaction. […] The data were represented by fluorescence signal readings at 665 nm and 620 nm respectively, with a high ratio of 665 nm/620 nm indicating high activity and a low ratio of 665 nm/620 nm indicating inhibition of activity. […]
In a 10 μL reaction system with a buffer of 20 mM Hepes (pH 7.5), 10 mM MgCl2, 1 mM EGTA, 0.01% Brij35, 0.1 mM sodium vanadate, 0.02 g/mL BSA, 2 mM DTT, 1% DMSO medium, containing 15 nM TrkA kinase, 0.3 μM biotin-TK peptide (biotin-labeled tyrosine kinase substrate polypeptide), 100 μM ATP were incubated at 23° C. for 120 minutes. […]

[2] = In vivo pharmacokinetics study after single administration in rats; set-up: species or system Sprague Dawley rats
Protocol: Experimental Example 3: In Vivo Pharmacokinetics Study after Single Administration in Rats
Male SD rats were used as the test animals, and the plasma concentrations of the compound were determined after a single administration and the pharmacokinetic behavior was evaluated.
Sprague Dawley rats (male, 200 to 300 g, 7 to 9 weeks old, Shanghai Charles River Laboratory Animal Co., LTD.)
Standard protocols were used to test the pharmacokinetic characteristics of the tested compounds in rodents after intravenous injection and oral administration, in the experiment, the tested compounds were prepared into a clear solution or a homogeneous suspension, and the rats were given a single intravenous injection and oral administration. In the intravenous injection group, the solvent was a certain proportion of ethanol and normal saline solution or a certain proportion of HP-β cyclodextrin solution of dimethyl sulfoxide (the pH was adjusted 3 to 4), the mixture was vortex-stirred to prepare 1 mg/mL clear solution and filtered by a microporous membrane for later use; oral solvent was a certain proportion of sodium carboxymethyl cellulose solution or a certain proportion of HP-β cyclodextrin solution of dimethyl sulfoxide (the pH was adjusted to above 4), after the compound to be tested was mixed with the solvent, the mixture was vortex-stirred to obtain a uniform suspension of 30 mg/mL for later use.
as §1

[3] = test system: human cytochrome P450 isoenzymes; experiment: Cytochrome P450 isoenzyme inhibitory activity test, overall conclusion; assay type: in vitro ADME; settings: human liver microsomes
Protocol: (§2) Experimental Example 2: Cytochrome P450 Isoenzyme Inhibitory Activity Test The inhibitory activities of test compound against different isoforms of human cytochrome P450 isoenzymes were determined. The test compound, standard inhibitor (100×final concentration) and mixed substrate working solution were prepared; the microsome frozen in −80° C. refrigerator was taken out and thawed. […]

CYP3A4 = CYP3A4 (Homo sapiens (Human), UniProt P08684); experiment: Cytochrome P450 isoenzyme inhibitory activity test (human liver microsomes); assay type: in vitro ADME; settings: heading: Cytochrome P450 isoenzyme IC50 CYP3A4, 37° C., 10 minutes
Chain of CYP3A4 (P08684 whole entry, canonical isoform): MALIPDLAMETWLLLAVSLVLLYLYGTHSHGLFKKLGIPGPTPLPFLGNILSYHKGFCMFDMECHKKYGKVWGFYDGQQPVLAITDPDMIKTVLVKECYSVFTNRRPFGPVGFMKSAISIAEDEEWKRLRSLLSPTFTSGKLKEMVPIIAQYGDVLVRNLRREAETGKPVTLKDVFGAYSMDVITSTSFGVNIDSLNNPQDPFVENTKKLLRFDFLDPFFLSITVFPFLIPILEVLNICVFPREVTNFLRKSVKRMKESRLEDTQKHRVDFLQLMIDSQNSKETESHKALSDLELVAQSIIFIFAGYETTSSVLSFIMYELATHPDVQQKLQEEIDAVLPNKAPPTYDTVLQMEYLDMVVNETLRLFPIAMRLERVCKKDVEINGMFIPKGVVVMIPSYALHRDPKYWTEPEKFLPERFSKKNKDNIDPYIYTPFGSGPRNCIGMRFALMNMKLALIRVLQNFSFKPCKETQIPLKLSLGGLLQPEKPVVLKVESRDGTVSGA
Protocol: (§3) Experimental Example 2: Cytochrome P450 Isoenzyme Inhibitory Activity Test The inhibitory activities of test compound against different isoforms of human cytochrome P450 isoenzymes were determined. The test compound, standard inhibitor (100×final concentration) and mixed substrate working solution were prepared; the microsome frozen in −80° C. refrigerator was taken out and thawed. 2 μL of the compound to be tested and standard inhibitor solution were added to the corresponding wells, and at the same time, 2 μL of the corresponding solvent was added to the non-inhibitor control wells (NIC) and the blank control wells; secondly, 20 μL of mixed substrate solution was added to the corresponding wells except the blank wells (20 μL of Pb was added to the blank wells); human liver microsome solution was prepared (the solution was put back in the refrigerator immediately after using and marking the date), and then 158 μL of human liver microsome solution was added to all wells; the sample plate was put in a 37° C. water bath for pre-incubation, and then a coenzyme factor (NADPH) solution was prepared; after 10 minutes, 20 μL of NADPH solution was added to all wells, the sample plate was shaken well, and incubated in a 37° C. water bath for 10 minutes; at the corresponding time point, 400 μL of cold acetonitrile solution (internal standard is 200 ng/mL tolbutamide and labetalol) was added to terminate the reaction; after the plates were evenly mixed, the mixture was centrifuged at 4000 rpm for 20 minutes to precipitate protein; 200 μL of supernatant was added into 100 μL of water, shaken well and detected by LC/MS/MS.

CYP2C9 = CYP2C9 (Homo sapiens (Human), UniProt P11712); experiment: as above; assay type: in vitro ADME; settings: heading: Cytochrome P450 isoenzyme IC50 CYP2C9, 37° C., 10 minutes
Chain of CYP2C9 (P11712 whole entry): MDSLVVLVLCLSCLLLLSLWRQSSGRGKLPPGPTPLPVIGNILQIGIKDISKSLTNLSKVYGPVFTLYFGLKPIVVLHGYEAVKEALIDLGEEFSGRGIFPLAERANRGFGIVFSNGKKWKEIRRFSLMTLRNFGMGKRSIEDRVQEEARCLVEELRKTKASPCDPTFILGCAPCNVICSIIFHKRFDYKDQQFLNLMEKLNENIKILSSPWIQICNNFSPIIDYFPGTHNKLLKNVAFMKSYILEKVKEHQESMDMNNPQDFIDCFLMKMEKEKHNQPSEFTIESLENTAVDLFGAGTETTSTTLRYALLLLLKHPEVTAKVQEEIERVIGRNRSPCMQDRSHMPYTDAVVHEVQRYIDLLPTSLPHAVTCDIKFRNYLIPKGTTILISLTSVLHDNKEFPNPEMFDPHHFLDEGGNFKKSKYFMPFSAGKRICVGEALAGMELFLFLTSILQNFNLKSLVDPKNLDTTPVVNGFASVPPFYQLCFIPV
Protocol: as §3

CYP2D6 = CYP2D6 (Homo sapiens (Human), UniProt P10635); experiment: as above; assay type: in vitro ADME; settings: heading: Cytochrome P450 isoenzyme IC50 CYP2D6, 37° C., 10 minutes
Chain of CYP2D6 (P10635 whole entry): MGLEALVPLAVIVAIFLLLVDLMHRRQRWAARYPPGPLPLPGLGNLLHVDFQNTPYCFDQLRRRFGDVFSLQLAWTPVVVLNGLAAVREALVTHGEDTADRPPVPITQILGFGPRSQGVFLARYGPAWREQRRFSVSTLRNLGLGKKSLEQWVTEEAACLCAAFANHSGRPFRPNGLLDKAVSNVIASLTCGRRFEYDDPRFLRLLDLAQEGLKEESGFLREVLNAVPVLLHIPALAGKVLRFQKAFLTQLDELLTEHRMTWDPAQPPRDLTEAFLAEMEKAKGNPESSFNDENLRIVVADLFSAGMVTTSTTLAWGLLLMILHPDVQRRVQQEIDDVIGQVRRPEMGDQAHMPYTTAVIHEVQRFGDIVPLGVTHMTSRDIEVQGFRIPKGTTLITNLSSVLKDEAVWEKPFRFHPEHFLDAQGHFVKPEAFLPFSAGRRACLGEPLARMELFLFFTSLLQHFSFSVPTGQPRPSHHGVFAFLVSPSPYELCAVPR
Protocol: as §3

CYP2C19 = CYP2C19 (Homo sapiens (Human), UniProt P33261); experiment: as above; assay type: in vitro ADME; settings: heading: Cytochrome P450 isoenzyme IC50 CYP2C19, 37° C., 10 minutes
Chain of CYP2C19 (P33261 whole entry): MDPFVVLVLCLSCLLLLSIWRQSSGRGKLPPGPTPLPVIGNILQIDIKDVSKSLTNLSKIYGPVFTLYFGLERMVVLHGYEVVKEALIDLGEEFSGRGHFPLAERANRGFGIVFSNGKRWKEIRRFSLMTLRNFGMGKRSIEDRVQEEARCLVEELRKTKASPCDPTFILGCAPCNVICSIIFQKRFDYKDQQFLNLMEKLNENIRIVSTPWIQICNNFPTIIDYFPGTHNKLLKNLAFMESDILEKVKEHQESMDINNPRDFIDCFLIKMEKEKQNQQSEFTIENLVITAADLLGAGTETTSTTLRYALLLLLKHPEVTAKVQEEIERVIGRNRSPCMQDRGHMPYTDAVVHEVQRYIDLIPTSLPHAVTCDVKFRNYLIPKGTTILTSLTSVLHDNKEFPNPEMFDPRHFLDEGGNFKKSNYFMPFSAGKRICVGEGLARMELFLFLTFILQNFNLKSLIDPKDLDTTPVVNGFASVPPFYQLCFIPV
Protocol: as §3

CYP1A2 = CYP1A2 (Homo sapiens (Human), UniProt P05177); assay type: in vitro ADME; settings: microsomes, 10 min
Chain of CYP1A2 (P05177 whole entry): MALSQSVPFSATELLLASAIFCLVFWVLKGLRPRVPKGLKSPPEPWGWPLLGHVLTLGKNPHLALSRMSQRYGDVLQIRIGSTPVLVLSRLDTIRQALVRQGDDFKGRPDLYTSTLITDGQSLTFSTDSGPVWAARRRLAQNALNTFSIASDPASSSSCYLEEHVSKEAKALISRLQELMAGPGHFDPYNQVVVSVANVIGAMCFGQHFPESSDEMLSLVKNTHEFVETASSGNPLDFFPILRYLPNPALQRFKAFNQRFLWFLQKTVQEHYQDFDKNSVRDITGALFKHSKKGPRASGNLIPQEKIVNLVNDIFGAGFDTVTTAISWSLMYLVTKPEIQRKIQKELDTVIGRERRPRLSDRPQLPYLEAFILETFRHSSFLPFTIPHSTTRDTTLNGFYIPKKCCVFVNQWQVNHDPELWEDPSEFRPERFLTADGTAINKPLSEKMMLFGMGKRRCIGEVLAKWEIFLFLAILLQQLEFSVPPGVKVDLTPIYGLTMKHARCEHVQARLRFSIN
Protocol: as §2

[4] = dog, plasma, 2 mg/kg, male Beagle dogs, 2 mpk intravenous injection
[5] = dog, plasma, 15 mg/kg, male Beagle dogs, 15 mpk oral
[6] = Sprague Dawley, rat, plasma, 2 mg/kg, male rats, 2 mpk intravenous injection
[7] = Sprague Dawley, rat, plasma, 300 mg/kg, male rats, 300 mpk oral

COCCN1C[C@@H](n2ccc(F)c2)[C@H](NC(=O)Nc2c(C)c(-c3cnc(C4(F)COC4)nc3)nn2-c2ccccc2)C1 [Compounds of formula (1)]
pharmacokinetic properties and oral bioavailability (in words) ([1]; beagle dogs): good pharmacokinetic properties and oral bioavailability | AUC(0-inf) [1, 4]: 1840 ng·h/mL | C0 [1, 4]: 3940 ng/mL | clearance [1, 4]: 18.4 mL/min/kg | half-life [1, 4]: 43.2 min | Vd ([1]; dog, plasma, 2 mg/kg, male Beagle dogs, 2 mpk intravenous injection, read-out: Vdss): 0.71 L/kg | AUC(0-inf) [1, 5]: 12600 ng·h/mL | Cmax [1, 5]: 4560 ng/mL | Tmax [1, 5]: 1 h | bioavailability [1, 5]: 91.3% | half-life [1, 5]: 72 min | inhibitory effect on TrkA enzyme (in words) (TrkA): significant inhibitory effect | pIC50 (TrkA; 15 nM TrkA kinase, 100 μM ATP, 23° C., 120 minutes, read-out: Trk AIC50): 8.18 | AUC(0-inf) [2, 6]: 1.97 µg·h/mL | C0 [2, 6]: 3620 ng/mL | clearance [2, 6]: 17.1 mL/min/kg | half-life [2, 6]: 36.6 min | Vd ([2]; Sprague Dawley, rat, plasma, 2 mg/kg, male rats, 2 mpk intravenous injection, read-out: Vdss): 0.7 L/kg | AUC(0-inf) [2, 7]: 210 µg·h/mL | Cmax [2, 7]: 47600 ng/mL | Tmax [2, 7]: 1.5 h | bioavailability [2, 7]: 71.1% | half-life [2, 7]: 102 min | pharmacokinetic properties and oral bioavailability (in words) ([2]; rats): good pharmacokinetic properties and oral bioavailability | risk of drug-drug interaction (in words) [3]: lower risk of drug-drug interaction | pIC50 (CYP3A4): < 4.30 | pIC50 (CYP2C9): 4.36 | pIC50 (CYP2D6): 4.50 | pIC50 (CYP2C19): < 4.30 | pIC50 (CYP1A2): < 7.30

Source: patent publication US11691965B2, “Method for preparing pyrrolidinyl urea derivative” (ZHANGZHOU PIEN TZE HUANG PHARMACEUTICAL CO., LTD., priority 2020, dated 2023)
